The values that follow are results of earlier work, collected in publication PMC3519477, “Structures of the Human Poly (ADP-Ribose) Glycohydrolase Catalytic Domain Confirm Catalytic Mechanism and Explain Inhibition by ADP-HPD Derivatives” (PLoS ONE, 2012).

A word on the Kd: it is the concentration at which binding is half-saturated.

In data set [1] the test system is bPARG Tyr796Trp mutant. The arrangement: method as in supplemental 6 (Koh et al., 2003). As to conditions: ref supplemental 6 (Koh et al., 2003); cited from earlier work.
In data set [2] the target is bPARG Glu728Asn mutant. As to conditions: cited from earlier work.
Data set [3] has as its system bPARG Glu708Asn mutant. The conditions noted are these: ref supplemental 2 (Patel et al., 2005); cited from earlier work.
In data set [4] the test system is bPARG Asp738Asn mutant. The conditions noted are these: ref supplemental 2 (Patel et al., 2005); cited from earlier work.
Data set [5] concerns bPARG Glu756Asn mutant. The arrangement: method as in supplemental 2 (Patel et al., 2005). The conditions noted are these: ref supplemental 2 (Patel et al., 2005); cited from earlier work.
Data set [6] deals with wild-type bPARG. Also noted: method as in PMID 15658938. The conditions noted are these: SPR with immobilized 8-AH-ADP-HPD; cited from earlier work.
Data set [7] deals with bPARG Glu757Asn mutant. Also noted: method as in supplemental 2 (Patel et al., 2005). As to conditions: ref supplemental 2 (Patel et al., 2005); cited from earlier work.

On to 8-aminohexylaminoADP-HPD [8-AH-ADP-HPD], for which the “effect of mutation on binding” value in data set [1] is “Limited effect on catalytic activity and 8-AH-ADP-HPD binding”. Moreover, the Kd is 3.2 nM in data set [2] (bPARG Glu728Asn (E727N in hPARG), SPR with immobilized 8-AH-ADP-HPD) and 8.2 nM in data set [6]. The “increase in affinity versus wild-type” value in data set [2] (bPARG Glu728Asn, ref supplemental 2 (Patel et al., 2005)) is 18% wild-type specific activity; 2.5-fold increase in affinity for 8-AH-ADP-HPD; in data set [3] it was “No effect on catalytic activity; 2.5-fold increase in affinity for 8-AH-ADP-HPD”; in data set [5], “No detectable activity; 8-fold increase in 8-AH-ADP-HPD affinity”. In data set [4], the “decrease in affinity versus wild-type” value is listed as “No detectable activity; 1.4-fold decrease in affinity for 8-AH-ADP-HPD”. In addition, the “effect of mutation on affinity” value in data set [7] is “No detectable activity; no effect on 8-AH-ADP-HPD affinity”.
